Measurements from article PMC6201908, “Affinity, potency, efficacy, and selectivity of neurokinin A analogs at human recombinant NK2 and NK1 receptors” (PLoS ONE, 2018).
Read-outs that look alike come from different tables or passages of the source. Non-standard residues stand in square brackets, D forms with d. Residues, ends and D or L forms follow the SMILES beside them. NMeL = CN[C@@H](CC(C)C)C(=O)O; Nle = CCCC[C@H](N)C(=O)O; βAla = NCCC(=O)O

Key:
[1] = target: T1, human recombinant NK2 receptors (Homo sapiens, UniProt P21452); test: Displacement of [^125I]-NKA binding to CHO-hNK2 membranes; settings: for Ki: [^125I]-NKA binding pKi; for [^125I]-NKA binding Slope: Hill slope of displacement curve; for NK1/NK2 ratio of Ki values: NK1 [^3H]-Septide Ki / NK2 [^125I]-NKA Ki
T1 sequence (P21452 1-398): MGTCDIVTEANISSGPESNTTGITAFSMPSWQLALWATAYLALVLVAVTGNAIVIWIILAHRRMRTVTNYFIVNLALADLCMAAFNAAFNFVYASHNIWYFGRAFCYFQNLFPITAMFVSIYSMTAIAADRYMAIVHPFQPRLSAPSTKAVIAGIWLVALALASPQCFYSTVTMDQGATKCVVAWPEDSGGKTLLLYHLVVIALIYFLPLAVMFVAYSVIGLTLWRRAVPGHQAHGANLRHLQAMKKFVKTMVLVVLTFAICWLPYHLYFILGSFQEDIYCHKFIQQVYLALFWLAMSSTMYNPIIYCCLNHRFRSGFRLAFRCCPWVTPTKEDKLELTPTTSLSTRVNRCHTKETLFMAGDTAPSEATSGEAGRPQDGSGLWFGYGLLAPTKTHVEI

[2] = target: T2, human recombinant NK1 receptors (Homo sapiens, UniProt P25103); test: cell-based
T2 sequence (P25103 whole entry): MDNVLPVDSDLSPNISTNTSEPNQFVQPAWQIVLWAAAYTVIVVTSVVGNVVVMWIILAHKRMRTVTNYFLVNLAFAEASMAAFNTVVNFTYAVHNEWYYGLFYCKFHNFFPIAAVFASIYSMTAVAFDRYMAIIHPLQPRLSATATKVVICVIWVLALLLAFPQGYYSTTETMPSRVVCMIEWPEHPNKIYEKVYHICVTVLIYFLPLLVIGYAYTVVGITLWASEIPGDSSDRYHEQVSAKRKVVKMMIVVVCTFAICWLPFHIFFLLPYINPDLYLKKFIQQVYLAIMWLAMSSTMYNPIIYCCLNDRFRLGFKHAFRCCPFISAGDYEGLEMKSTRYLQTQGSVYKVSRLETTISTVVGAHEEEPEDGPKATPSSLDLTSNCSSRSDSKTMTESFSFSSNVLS
Method: (§1) Human recombinant NK2 and NK1 receptors were generated using stably transfected CHO cells (CHO-hNK2 and CHO-hNK1, respectively). Human NK2 or NK1 receptor expressing vectors from Genecopeia (Rockville, USA) were transfected in CHO cells using the standard FuGENE protocol and cells were selected using 450 μg/mL geneticin (G418). Clones expressing the receptors were selected by functional coupling to calcium using FLIPR and a single clone for each receptor subtype was selected for expansion and stable cell line generation. Cells were cultured in a humidified incubator with 5% CO2 in F12K medium containing 10% heat inactivated FBS and 450 μg/mL geneticin and passaged on reaching 80–90% confluence.
(§2) The agonist efficacy of the test compounds at recombinant human NK1 or NK2 receptors expressed in CHO cells was assessed by measuring the intracellular calcium response using the calcium-sensitive dye Fluo-4 AM (Eugene, OR, USA) and a Fluorometric Imaging Plate Reader (FLIPR, Molecular Devices, CA, USA). CHO-hNK1 and CHO-hNK2 cells were seeded into black walled clear-bottom 384-well plates at a density of 10,000 and 15,000 cells per well in 50 μL culture media, respectively, and grown overnight at 37°C in a humidified CO2-incubator. Cells were washed in washing buffer using an EMBLA 384 plate washer, leaving 20 μL of buffer per well after the final aspiration. Cells were then incubated at 37°C with the cytoplasmic Ca^2+ indicator Fluo-4 AM (final concentration 1 μM) in assay buffer (20 mM HEPES, 145 mM NaCl, 5 mM KCl, 5.5 mM glucose, 1 mM MgCl2 and 2 mM CaCl2, pH 7.4, 0.05% Pluronic F-127 and 0.1% BSA) containing 2.5 mM probenecid for 45–60 min (cell loading). Cells were then washed 3 times in washing buffer (20 mM HEPES, 145 mM NaCl, 5 mM KCl, 5.5 mM glucose, 1 mM MgCl2 and 2 mM CaCl2, pH 7.4 and 2.5 mM probenecid) using an EMBLA 384 plate washer, leaving 30 μL of buffer in each well after the last wash. Loaded cell plates were transferred to the FLIPR and calcium responses were monitored as described below. […] Concentration response curves of test compounds were generated in duplicate on at least two different occasions from the same stock solutions. Test solutions were prepared from 10 mM stock solutions in DMSO and 1 μL of each solution was stamped into V-bottom assay plates containing 49 μL assay buffer. The final concentration of DMSO was 0.5% in each well.

[3] = target: T1, human recombinant NK2 receptors; test: cell-based; settings: for NK1/NK2 ratio of EC50s for intracellular calcium response: NK1 EC50 / NK2 EC50
Method: as §1, §2

[4] = target: T2, human recombinant NK1 receptors; test: Displacement of [^3H]-Septide binding to CHO-hNK1 membranes (septide site); settings: for [^3H]-Septide binding pKi / [^3H]-Septide binding Slope: 5.0 nM [^3H]-Septide, 23°C, 1 h, mean ± SD; for [^3H]-Septide binding pKi: CHO-hNK1 membranes 20 μg/well; for [^3H]-Septide binding Slope: Hill slope of displacement curve
Method: Protein expression was induced by addition of 5 mM sodium butyrate to the culture medium. […] The cell suspension was collected, placed on ice and centrifuged for 5 min at 4°C and 1200 rpm in a Beckman GS6R centrifuge. After removal of the supernatant the cell pellet was washed and collected by re-suspension in PBS and centrifugation. The final pellet was weighed and frozen at -80°C until use. Frozen pellets were thawed and homogenized in 10 volumes (w/v) of membrane preparation buffer (50 mM HEPES pH 7.4, 1 mM EDTA, 50 μg/mL bacitracin and protease inhibitors) using a Polytron Ultraturrax (twice for 15 s per cycle). The homogenate was centrifuged for 20 min at 4°C and 18500 rpm in a SL-50T Sorvall rotor and the pellet was re-suspended in membrane preparation buffer and re-homogenized as before. After centrifugation for 20 min at 4°C and 18500 rpm, the pellets were re-suspended in 5 volumes of membrane preparation buffer and divided into aliquots before freezing at -80°C. Protein concentration was determined using BioRad Protein Assay (Milan, Italy) with a BSA standard curve. Stock solutions of test compounds (10 mM) were prepared in DMSO and stored at -20°C until use. […] The goodness of fit between One-Site and Two-Site models was examined using Akaike's Information Corrected Criteria (AICC; [23]) in SAS v9.4 (SAS Institute, Cary NC) in order to select the best model for the data generated. […] Data from displacement experiments were plotted as the log [inhibitor concentration] (X axis) versus response expressed as TB in cpm (Y axis).

[5] = Intracellular Ca^2+ pEC50, CHO-hNK2 cells, mean ± SD
[6] = NK2 EC50 intracellular calcium response, CHO-hNK2 cells
[7] = 0.1 nM [^125I]-NKA, CHO-hNK2 membranes 6 μg/well, 23°C, 3 h, mean ± SD
[8] = 0.1 nM [^125I]-NKA, 23°C, 3 h, mean ± SD
[9] = CHO-hNK1 cells, % of maximal response observed with substance P, mean ± SD
[10] = CHO-hNK2 cells, % of maximal response observed with NKA, mean ± SD
[11] = Intracellular Ca^2+ pEC50, CHO-hNK1 cells, mean ± SD
[12] = NK1 EC50 intracellular calcium response, CHO-hNK1 cells

Row | SMILES | Intracellular Ca^2+ % Max [2] [%] | EC50 [3, 5] [nM] | EC50 [3, 6] [nM] | EC50 [2, 11] [nM] | EC50 [2, 12] [nM] | Intracellular Ca^2+ % Max [3] [%] | also measured
1 | CSCC[C@H](NC(=O)[C@H](CC(C)C)NC(=O)CNC(=O)[C@@H](NC(=O)[C@H](Cc1ccccc1)NC(=O)[C@H](CO)NC(=O)[C@@H](N)CC(=O)O)C(C)C)C(N)=O [NKA(4–10), Asp-Ser-Phe-Val-Gly-Leu-Met-NH2] | 117.4 ± 12.8 | 1.02 | 1.02 |  |  |  | Ki [1]: 2.34 nM
2 | CCCC[C@H](NC(=O)[C@H](CC(C)C)N(C)C(=O)CNC(=O)[C@@H](NC(=O)[C@H](Cc1ccccc1)NC(=O)[C@H](CCCNC(=N)N)NC(=O)[C@@H](N)CC(=O)O)C(C)C)C(N)=O [[Arg^5,MeLeu^9,Nle^10]-NKA(4-10), Asp-Arg-Phe-Val-Gly-(NMe-Leu)-Nle-NH2] (H-DRFVG[NMeL][Nle]-NH2; N-terminus assumed) |  | 0.0832 |  |  |  |  | [^125I]-NKA binding pKi [1, 7]: 9.23 ± 0.19; [^125I]-NKA binding Slope [1, 8]: -0.86 ± 0.09; NK1/NK2 ratio of Ki values [1]: 561; Fold more selective for NK2 over septide site of NK1 receptor compared with NKA (binding) ([1]; from Ki ratios): more than 28 fold; Intracellular Ca^2+ % Max [2, 9]: 100.4 ± 1.5%; Intracellular Ca^2+ pEC50 ([2]; CHO-hNK1 cells, mean ± SD): 8.23 ± 0.32; Difference between pEC50 and pKi values ([2]; NK1 receptors, calcium response vs [^3H]-Septide binding): 56 fold; Intracellular Ca^2+ % Max [3, 10]: 89.0 ± 15.5%; NK1/NK2 ratio of EC50s for intracellular calcium response [3]: 70; [^3H]-Septide binding pKi [4]: 6.48 ± 0.05; [^3H]-Septide binding Slope [4]: -0.89 ± 0.13; Ki ([4]; displacement of [^3H]-Septide binding, read-out: NK1 [^3H]-Septide Ki): 331 nM
3 | CSCC[C@H](NC(=O)[C@H](CC(C)C)N(C)C(=O)CNC(=O)[C@@H](NC(=O)[C@H](Cc1ccccc1)NC(=O)[C@H](CCCNC(=N)N)NC(=O)[C@@H](N)CC(=O)O)C(C)C)C(N)=O [[Arg^5,MeLeu^9]-NKA(4-10), Asp-Arg-Phe-Val-Gly-(NMe-Leu)-Met-NH2] (H-DRFVG[NMeL]M-NH2) |  | 0.162 |  |  |  |  | [^125I]-NKA binding Slope [1, 8]: -0.90 ± 0.07; NK1/NK2 ratio of Ki values [1]: 174; Ki [1, 7]: 0.126 nM; Intracellular Ca^2+ % Max [2, 9]: 99.9 ± 13.3%; Intracellular Ca^2+ pEC50 ([2]; CHO-hNK1 cells, mean ± SD): 9.52 ± 0.29; Intracellular Ca^2+ % Max [3, 10]: 111.5 ± 3.7%; NK1/NK2 ratio of EC50s for intracellular calcium response [3]: 2; [^3H]-Septide binding pKi [4]: 7.68 ± 0.16; [^3H]-Septide binding Slope [4]: -0.75 ± 0.03
4 | CCCC[C@H](NC(=O)[C@H](CC(C)C)NC(=O)CNC(=O)[C@@H](NC(=O)[C@H](Cc1ccccc1)NC(=O)[C@H](CCCNC(=N)N)NC(=O)[C@@H](N)CC(=O)O)C(C)C)C(N)=O [[Arg^5,Nle^10]-NKA(4–10), Asp-Arg-Phe-Val-Gly-Leu-Nle-NH2] (H-DRFVGL[Nle]-NH2) |  | 0.2 | 0.2 | 1.7 | 1.71 |  | 
5 | CCCC[C@H](NC(=O)[C@H](CC(C)C)NC(=O)CCNC(=O)[C@@H](NC(=O)[C@H](Cc1ccccc1)NC(=O)[C@H](CCCNC(=N)N)NC(=O)[C@@H](N)CC(=O)O)C(C)C)C(N)=O [[Arg^5,β-Ala^8,Nle^10]-NKA(4–10), Asp-Arg-Phe-Val-[β-Ala]-Leu-Nle-NH2] (H-DRFV[βAla]L[Nle]-NH2) | 104.9 ± 13.2 | 1.15 | 1.16 | 29.5 | 29.5 | 81.4 ± 1.2 | 
6 | CSCC[C@H](NC(=O)[C@H](CC(C)C)NC(=O)CCNC(=O)[C@@H](NC(=O)[C@H](Cc1ccccc1)NC(=O)[C@H](CCCNC(=N)N)NC(=O)[C@@H](N)CC(=O)O)C(C)C)C(N)=O [[Arg^5,β-Ala^8]-NKA(4–10), Asp-Arg-Phe-Val-[β-Ala]-Leu-Met-NH2] (H-DRFV[βAla]LM-NH2) | 101.5 ± 18.4 | 0.151 | 0.15 | 1.82 | 1.83 | 106.9 ± 8.9 | 
7 | CSCC[C@H](NC(=O)[C@H](CC(C)C)NC(=O)CNC(=O)[C@@H](NC(=O)[C@H](Cc1ccccc1)NC(=O)[C@H](CCCNC(=N)N)NC(=O)[C@@H](N)CC(=O)O)C(C)C)C(N)=O [[Arg^5]-NKA(4–10), Asp-Arg-Phe-Val-Gly-Leu-Met-NH2] (H-DRFVGLM-NH2) |  | 0.191 | 0.19 | 0.155 | 0.16 |  | 
8 | CCCC[C@H](NC(=O)[C@H](CC(C)C)NC(=O)CNC(=O)[C@@H](NC(=O)[C@H](Cc1ccccc1)NC(=O)[C@H](CCCCN)NC(=O)[C@@H](N)CC(=O)O)C(C)C)C(N)=O [[Lys^5,Nle^10]-NKA(4–10), Asp-Lys-Phe-Val-Gly-Leu-Nle-NH2] |  | 0.38 | 0.38 | 2.34 | 2.36 |  | 
9 | CCCC[C@H](NC(=O)[C@H](CC(C)C)NC(=O)CCNC(=O)[C@@H](NC(=O)[C@H](Cc1ccccc1)NC(=O)[C@H](CCCCN)NC(=O)[C@@H](N)CC(=O)O)C(C)C)C(N)=O [[Lys^5,β-Ala^8,Nle^10]-NKA(4–10), Asp-Lys-Phe-Val-[β-Ala]-Leu-Nle-NH2] (H-DKFV[βAla]L[Nle]-NH2) | 107.0 ± 14.0 | 3.02 | 3 | 77.6 | 78.2 | 83.1 ± 25.5 | 
10 | CSCC[C@H](NC(=O)[C@H](CC(C)C)NC(=O)CCNC(=O)[C@@H](NC(=O)[C@H](Cc1ccccc1)NC(=O)[C@H](CCCCN)NC(=O)[C@@H](N)CC(=O)O)C(C)C)C(N)=O [[Lys^5,β-Ala^8]-NKA(4–10), Asp-Lys-Phe-Val-[β-Ala]-Leu-Met-NH2] (H-DKFV[βAla]LM-NH2) | 105.8 ± 3.4 | 0.174 | 0.18 | 6.31 | 6.31 | 92.0 ± 3.8 | 
11 | CSCC[C@H](NC(=O)[C@H](CC(C)C)NC(=O)CNC(=O)[C@@H](NC(=O)[C@H](Cc1ccccc1)NC(=O)[C@H](CCCCN)NC(=O)[C@@H](N)CC(=O)O)C(C)C)C(N)=O [[Lys^5]-NKA(4–10), Asp-Lys-Phe-Val-Gly-Leu-Met-NH2] |  | 0.0891 | 0.09 | 0.417 | 0.41 |  | 
